From PubChem BioAssay (NCI)
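Briefly, cells in 96-well plates were exposed to five compound concentrations for 48 h, and endpoints were estimated by linear interpolation. TGI: total growth inhibition.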

Experiments:
Assay in all cases: NCI tumour cell line growth inhibition, 48 h
[1] = tested on: HCT-116 colon
[2] = tested on: HL-60(TB) leukemia
[3] = tested on: IGROV1 ovarian
[4] = tested on: MDA-MB-435
[5] = tested on: NCI-H226 lung
[6] = tested on: NCI-H522 lung
[7] = tested on: SK-MEL-5 melanoma
[8] = tested on: SK-OV-3 ovarian
[9] = tested on: SW-620 colon
[10] = tested on: T-47D breast

| Compound | TGI [1] [µM] | TGI [2] [µM] | TGI [3] [µM] | TGI [4] [µM] | TGI [5] [µM] | TGI [6] [µM] | TGI [7] [µM] | TGI [8] [µM] | TGI [9] [µM] | TGI [10] [µM] |
| --- | --- | --- | --- | --- | --- | --- | --- | --- | --- | --- |
| CN(/N=C/c1cccc2cccnc12)c1ccc(Cl)cc1[N+](=O)[O-] | > 100 | > 100 | > 100 | > 100 | > 100 | > 100 | > 100 | > 100 | > 100 |  |
| CC1=C(c2ccccc2)NC(=S)C(C)C(c2ccccc2)=N1 (configuration not stated) | > 100 | 35.1 | > 100 | 69.3 | > 100 |  | 82.9 | > 100 | > 100 | > 100 |
| CCCCCCCCCCCCCCCCCCNC(=S)/N=C\C1=C(O)c2ccccc2C1=O | 15.3 | > 100 | 5.62 | 30.9 | 25.6 |  | 34.7 | 33.6 | 25.3 | 37.2 |
| N#Cc1c(N2CCC(O)C2)c2ccccc2n2c1nc1ccccc12 (configuration not stated) | > 100 | > 100 | > 100 | > 100 |  | > 100 | > 100 |  | > 100 | > 100 |
| COc1ccc(/C=C2\CCS(=O)(=O)c3ccccc3C2=O)cc1 | 31.2 | 66.4 | 43.1 | 89.8 | 62.8 |  |  | > 100 | 49.1 | 74.3 |
| CCOC(=O)C1(C(=O)OCC)OC(C)=NC1(C(=O)OC)C(=O)OC | > 100 | > 100 | > 100 | > 100 | > 100 |  | > 100 | > 100 | > 100 | > 100 |
| CC(=O)Nc1ccc2c3c(cc(O)c2c1)N(C(=O)CCCCCCC(=O)N1CC(CCl)c2c1cc(O)c1cc(NC(C)=O)ccc21)CC3CCl (configuration not stated) |  |  | 0.499 | 0.0604 |  | 0.0695 | < 0.0109 | 12.4 | > 100 | < 0.01 |
| O=C(Nc1ccc2[nH]c(C(=O)N3CC(CCl)c4c3cc([N+](=O)[O-])c3ccccc43)cc2c1)Nc1ccc2[nH]c(C(=O)N3CC(CCl)c4c3cc([N+](=O)[O-])c3ccccc43)cc2c1 (configuration not stated) | > 100 |  |  | > 100 | > 100 | > 100 | > 100 | > 100 |  | > 100 |
| NCCCC[C@H](N)C(=O)Nc1ccc(-c2nc3ccccc3s2)cc1 | 33 |  | 31.5 | 35.1 | 71.1 | 33.9 | 94.4 | 39.2 | 30.6 | > 100 |
| [N-]=[N+]=NC(c1cn(C2CC(O)C(CO)O2)c(=O)[nH]c1=O)C(Cl)I (configuration not stated) | > 100 |  | > 100 | > 100 | > 100 |  | > 100 | > 100 | > 100 | > 100 |
| COC1C(O)C(n2ncc3c(SC)nc(SC)nc32)OC1C(O)CO (configuration not stated) | > 100 | > 100 | > 100 |  | > 100 | > 100 | > 100 | > 100 | > 100 |  |
| CC1=C(O)C(=O)C2C(=O)C1C1Cc3ccccc3C21 (configuration not stated) |  | > 100 | > 100 |  | > 100 | > 100 | > 100 | > 100 | > 100 |  |
| CCOc1ccc(N/C(=C(/C(Cl)=C(/Cl)N2CCCCC2)[N+](=O)[O-])n2nnc3ccccc32)cc1 | 37.7 |  |  | 32.3 | 58.7 | 22 | 29.9 | 82 |  | 49.6 |
| CC(C)NC(=O)N(Nc1ccccc1)C(C)(C)C | > 100 | > 100 | > 100 |  | > 100 |  | > 100 | > 100 | > 100 |  |
| Cc1c2c(c(O)c3c(O)cccc13)C(=O)C1(O)C(O)=C(C(=O)NCNc3ccc(C(N)=O)cn3)C(=O)C(N(C)C)C1C2 (configuration not stated) | > 100 |  | 6.27 | 27.1 | > 100 |  | 11.2 | 8.78 | 42 | > 100 |
| OC(c1ccc(C(F)(F)F)cc1)C(F)(F)c1nc2ccccc2o1 (configuration not stated) | > 100 | > 100 | > 100 | > 100 | > 100 |  | > 100 | > 100 | > 100 | > 100 |
| COC(O)C(=O)c1ccc2c(c1)CC1(C2)Cc2cc3c(cc2C1=O)CCC3 (configuration not stated) | 34.8 |  | 32.8 | 35.3 | 43.6 | 35.7 | 29.4 | 31.9 | 30.3 | 48.1 |
| Cc1ccc(S(=O)(=O)Oc2nc3ccccc3nc2OS(=O)(=O)c2ccc(C)cc2)cc1 | > 100 | > 100 | > 100 | > 100 | > 100 | 49.9 | 56.1 | > 100 | > 100 |  |
